Data from patent publication US9630958B2, “Triazine compounds” (Sphaera Pharma Pte. Ltd., priority 2012, dated 2017).

Experiments:
[1] = target: T1, Recombinant mTOR (FRAP1) (Homo sapiens, UniProt P42345); assay: mTOR in vitro kinase assay (TR-FRET, phosphorylation of GFP-4E-BP1); assay type: biochemical; details: for inhibition at 1 µM: 1 uM compound, read-out: mTOR % Inhib@1 uM; for IC50: 8 μM ATP, 400 nM GFP-4E-BP1
T1 construct: purchased Invitrogen
Description: Compounds were evaluated for mTOR activity using an in vitro kinase assay.
mTOR activity is measured in vitro by determining the level of phosphorylation of the protein substrate 4EBP-1. The phosphorylation of GFP-4E-BP1 at threonine residue is recognized by Ab Tb-Anti-p4EBP1, which results in time resolved fluorescence energy transfer (TR-FRET) between GFP and Terbium in the Ab-Protein complex.
Recombinant mTOR (FRAP1), Kinase reaction buffer, GFP-4E-BP1 and LanthaScreen Tb-anti-4E-BP1 (pThr46), TR FRET dilution buffer, Kinase Quench Buffer were obtained from Invitrogen.
Kinase reactions were performed in 10 μl volume in Corning white 384 well plates. […] The reaction was initiated by the addition of substrate (GFP-4E-BP1) and ATP at a final conc. of 400 nM and 8 μM ATP in the reaction respectively. The kinase reaction was allowed to proceed for 1 hour at room temperature before a 10 μL preparation of kinase quench buffer and Tb-labeled Antibody in TR-FRET dilution buffer was added. The final concentration of the antibody in the assay well is 2 nM and the final concentration of EDTA is 10 mM. The plate was incubated at room temperature for 1 h.
(§1) FRET signal was read in Envision Multilabel Reader with the following filters:
Excitation-330 nm and Emission 486 nm (donor) and 520 nm (acceptor).
TR FRET Ratio (Fluorescence 520 nm/Fluorescence 486 nm) was plotted against the concentration of inhibitor and data was fit to Non Linear Regression curve fit (sigmoidal dose response curve with variable slope-four parameters) using Graph Pad Prism 5.

[2] = target: T2, PI3 Kinase alpha (p110 alpha/p85 alpha) (Homo sapiens, UniProt P42336); assay: PI3K TR-FRET assay (Transcreener ADP2); assay type: biochemical; details: for inhibition at 1 µM: 1 uM compound, read-out: PI3K % Inhib@1 uM; for IC50: PI3K alpha, 1 μM ATP, 50 μM PIP2
T2 construct: purchased Invitrogen
T2 sequence (P42336 whole entry): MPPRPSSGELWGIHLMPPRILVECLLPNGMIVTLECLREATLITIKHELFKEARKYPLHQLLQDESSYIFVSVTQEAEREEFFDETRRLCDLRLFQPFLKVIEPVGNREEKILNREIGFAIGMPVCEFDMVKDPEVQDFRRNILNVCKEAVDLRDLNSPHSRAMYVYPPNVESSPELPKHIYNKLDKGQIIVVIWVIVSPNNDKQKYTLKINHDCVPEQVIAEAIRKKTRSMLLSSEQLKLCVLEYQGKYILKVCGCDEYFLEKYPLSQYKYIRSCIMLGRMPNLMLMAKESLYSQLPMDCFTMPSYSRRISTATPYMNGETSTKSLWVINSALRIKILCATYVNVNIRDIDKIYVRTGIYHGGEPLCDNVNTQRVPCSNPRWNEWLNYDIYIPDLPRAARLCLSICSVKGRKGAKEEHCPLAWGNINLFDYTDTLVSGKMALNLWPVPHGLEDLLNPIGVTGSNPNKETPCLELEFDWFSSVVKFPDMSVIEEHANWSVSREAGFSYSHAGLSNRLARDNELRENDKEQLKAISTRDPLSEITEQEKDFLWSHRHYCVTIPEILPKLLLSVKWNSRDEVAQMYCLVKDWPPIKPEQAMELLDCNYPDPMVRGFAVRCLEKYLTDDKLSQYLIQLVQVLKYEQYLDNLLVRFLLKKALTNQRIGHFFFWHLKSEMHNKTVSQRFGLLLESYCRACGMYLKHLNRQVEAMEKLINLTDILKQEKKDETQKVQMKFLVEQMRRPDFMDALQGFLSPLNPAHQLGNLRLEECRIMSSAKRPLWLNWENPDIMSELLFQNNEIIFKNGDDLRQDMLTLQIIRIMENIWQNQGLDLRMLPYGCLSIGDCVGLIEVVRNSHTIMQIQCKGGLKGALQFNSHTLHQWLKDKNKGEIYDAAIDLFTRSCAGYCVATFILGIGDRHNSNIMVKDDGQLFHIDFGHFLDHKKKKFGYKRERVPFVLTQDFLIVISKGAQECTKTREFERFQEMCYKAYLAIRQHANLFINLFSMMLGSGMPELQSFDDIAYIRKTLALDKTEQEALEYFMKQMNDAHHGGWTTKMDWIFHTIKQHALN
T2 sequence (P27986 whole entry partner): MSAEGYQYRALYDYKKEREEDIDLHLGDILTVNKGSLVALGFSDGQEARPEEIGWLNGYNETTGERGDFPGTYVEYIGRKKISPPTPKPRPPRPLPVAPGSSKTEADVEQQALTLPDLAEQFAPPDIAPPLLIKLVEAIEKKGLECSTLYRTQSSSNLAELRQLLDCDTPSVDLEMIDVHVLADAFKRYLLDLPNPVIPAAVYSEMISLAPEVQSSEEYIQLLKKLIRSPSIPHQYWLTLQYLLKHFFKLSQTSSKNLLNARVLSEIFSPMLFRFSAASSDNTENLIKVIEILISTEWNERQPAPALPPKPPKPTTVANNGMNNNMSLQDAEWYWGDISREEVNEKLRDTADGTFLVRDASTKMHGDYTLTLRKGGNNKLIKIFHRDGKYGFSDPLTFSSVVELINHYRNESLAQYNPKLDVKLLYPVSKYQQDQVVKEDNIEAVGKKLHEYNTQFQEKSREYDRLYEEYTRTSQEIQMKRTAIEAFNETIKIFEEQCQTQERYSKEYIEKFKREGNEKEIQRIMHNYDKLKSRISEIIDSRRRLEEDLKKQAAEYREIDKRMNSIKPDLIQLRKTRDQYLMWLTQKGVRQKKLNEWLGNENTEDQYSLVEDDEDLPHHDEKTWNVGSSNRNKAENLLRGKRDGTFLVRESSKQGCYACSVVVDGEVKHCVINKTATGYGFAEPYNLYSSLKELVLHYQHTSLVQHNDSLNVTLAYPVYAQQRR
Description: Enzymatic activity of PI3K alpha was measured using Time resolved Fluorescence resonance energy transfer (TR-FRET) assay. This assay utilizes ADP detection as a means to screen inhibitor potency of compounds. The Transcreener ADP2 TR-FRET Red Assay is a competitive immunoassay for ADP with a far-red, TR-FRET readout and it has been used for this purpose. The assay can be used for any enzyme class that produces ADP (Kinases, ATPases). It consists of ADP HiLyte647 Tracer, ADP^2 Antibody-Tb conjugate (800 nM), stop & detect buffer, 5 mM ATP, 5 mM ADP. The ADP HiLyte647 Tracer is bound to an ADP^2 Antibody-Tb conjugate. The excitation of the terbium complex in the UV range results in energy transfer to the tracer and emission at a higher wavelength after a time delay ADP produced by the target enzyme displaces the tracer which causes decrease in TR-FRET.
The reaction buffer used for the assay was 50 mM HEPES, pH 7.4.3 mM MgCl2, 0.05% CHAPS, 50 mM NaCl, 2 mM DTT, 1 mM EGTA. PI3 Kinase alpha (p110 alpha/p85 alpha) and PIP2 Substrate (diC8,) were procured from Invitrogen and Echelon respectively.
Kinase reactions were performed in 10 μl volume in Corning white 384 well plates. […] Reaction was initiated by the addition of substrate (PIP2) and ATP at final conc. of 50 μM and 1 μM ATP in the reaction respectively. Kinase reactions were allowed to proceed for 1 hour at room temperature before a 10 μL preparation of Transcreener ADP detection mix was added. Plate was incubated at room temperature for 1 hr. ADP-ATP standard curves were also prepared.
as §1
Excitation-330 nm and Emission 615 nm (donor) and 665 nm (acceptor). TR FRET Ratio (Fluorescence 665 nm/Fluorescence 615 nm) was converted to amount of product formed using the standard curve generated. Percentage inhibition was calculated and plotted against the concentration of inhibitor and data was fit to Non Linear Regression curve fit (sigmoidal dose response curve with variable slope-four parameters) using Graph pad prism 5 and IC50 was calculated for the compound.

T1 sequence (P42345 1360-2549 limits assumed): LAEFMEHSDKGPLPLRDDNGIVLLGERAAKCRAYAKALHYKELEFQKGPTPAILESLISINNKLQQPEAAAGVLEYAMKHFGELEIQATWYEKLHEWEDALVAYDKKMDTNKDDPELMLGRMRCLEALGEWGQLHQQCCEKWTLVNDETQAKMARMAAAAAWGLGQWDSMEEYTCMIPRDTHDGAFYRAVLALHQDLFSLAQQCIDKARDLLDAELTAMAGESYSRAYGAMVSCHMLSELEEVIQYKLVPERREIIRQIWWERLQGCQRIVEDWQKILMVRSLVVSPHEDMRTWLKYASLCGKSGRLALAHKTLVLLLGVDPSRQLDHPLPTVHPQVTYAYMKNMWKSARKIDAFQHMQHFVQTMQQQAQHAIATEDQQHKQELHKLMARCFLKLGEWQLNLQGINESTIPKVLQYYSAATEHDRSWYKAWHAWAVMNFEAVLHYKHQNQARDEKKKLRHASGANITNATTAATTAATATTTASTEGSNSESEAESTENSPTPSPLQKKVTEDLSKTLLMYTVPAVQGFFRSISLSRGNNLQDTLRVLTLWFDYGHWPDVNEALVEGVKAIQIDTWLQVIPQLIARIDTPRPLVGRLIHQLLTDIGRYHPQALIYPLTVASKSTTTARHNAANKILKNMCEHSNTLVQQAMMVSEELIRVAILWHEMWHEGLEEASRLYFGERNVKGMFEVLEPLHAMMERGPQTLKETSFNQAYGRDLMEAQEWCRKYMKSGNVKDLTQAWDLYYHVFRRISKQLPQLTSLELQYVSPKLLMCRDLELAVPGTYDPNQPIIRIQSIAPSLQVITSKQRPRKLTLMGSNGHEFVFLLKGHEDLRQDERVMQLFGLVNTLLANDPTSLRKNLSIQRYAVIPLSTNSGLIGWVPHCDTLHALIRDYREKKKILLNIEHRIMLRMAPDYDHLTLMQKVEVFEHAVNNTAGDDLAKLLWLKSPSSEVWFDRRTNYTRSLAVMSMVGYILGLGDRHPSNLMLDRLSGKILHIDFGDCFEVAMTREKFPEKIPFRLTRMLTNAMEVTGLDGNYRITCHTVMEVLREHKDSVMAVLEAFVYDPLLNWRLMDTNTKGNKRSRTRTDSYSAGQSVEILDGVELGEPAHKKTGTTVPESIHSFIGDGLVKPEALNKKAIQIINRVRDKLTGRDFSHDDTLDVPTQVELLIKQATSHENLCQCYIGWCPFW

| SMILES | inhibition at 1 µM [1] [%] | IC50 [1] [µM] | inhibition at 1 µM [2] [%] | IC50 [2] [µM] |
| --- | --- | --- | --- | --- |
| C[C@@H]1CN(c2nc(Oc3ccc(C(=O)N(C)C)cc3)nc(-c3cnc(N)s3)n2)[C@@H](C)CO1 [Compound 10076, 4-((4-(2-Aminothiazol-5-yl)-6-((2R,5S)-2,5-dimethylmorpholino)-1,3,5-triazin-2-yl)oxy)-N,N-dimethylbenzamide] | > 50 | < 1 | < 50 | > 1 |
| C[C@H]1CN(c2nc(Oc3ccc(C(=O)N(C)C)cc3)nc(-c3cnc(N)s3)n2)[C@@H](C)CO1 [Compound 10077, 4-((4-(2-Aminothiazol-5-yl)-6-((2S,5S)-2,5-dimethylmorpholino)-1,3,5-triazin-2-yl)oxy)-N,N-dimethylbenzamide] | – | < 1 | > 50 | < 1 |
| C[C@H]1COC[C@H](C)N1c1nc(Oc2ccc(C(=O)N(C)C)cc2)nc(-c2cnc(N)s2)n1 [Compound 10078, 4-((4-(2-Aminothiazol-5-yl)-6-((3S,5S)-3,5-dimethylmorpholino)-1,3,5-triazin-2-yl)oxy)-N,N-dimethybenzamide] | > 50 | < 1 | > 50 | < 1 |
| C[C@@H]1COC[C@H](C)N1c1nc(Oc2ccc(C(=O)N(C)C)cc2)nc(-c2cnc(N)s2)n1 [Compound 10079, 4-((4-(2-Aminothiazol-5-yl)-6-((3S,5R)-3,5-dimethylmorpholino)-1,3,5-triazin-2-yl)oxy)-N,N-dimethybenzamide] | – | < 1 | < 50 | > 1 |
| CC[C@H]1COCCN1c1nc(Oc2ccc(C(=O)N(C)C)cc2)nc(-c2cnc(N)s2)n1 [Compound 10081, (S)-4-((4-(2-Aminothiazol-5-yl)-6-(3-ethylmorpholino)-1,3,5-triazin-2-yl)oxy)-N,N-dimethylbenzamide] | > 50 | < 1 | > 50 | < 1 |
| CC[C@@H]1COCCN1c1nc(Oc2ccc(C(=O)N(C)C)cc2)nc(-c2cnc(N)s2)n1 [Compound 10082, (R)-4-((4-(2-Aminothiazol-5-yl)-6-(3-ethylmorpholino)-1,3,5-triazin-2-yl)oxy)-N,N-dimethylbenzamide] | < 50 | – | < 50 | – |
| CNC(=O)Nc1ncc(-c2nc(Oc3ccc(C(=O)N(C)C)cc3)nc(N3CCOC[C@@H]3C)n2)s1 [Compound 10091, (S)-N,N-dimethyl-4-((4-(3-methylmorpholino)-6-(2-(3-methylureido)thiazol-5-yl)-1,3,5-triazin-2-yl)oxy)benzamide] | > 50 | < 1 | – | < 1 |
| C[C@H]1COCCN1c1nc(Oc2ccc(C(=O)N(C)C)cc2)nc(-c2cnc(NC(=O)Nc3cccnc3)s2)n1 [Compound 10092] | – | < 1 | < 50 | < 1 |
| C[C@H]1COCCN1c1nc(Oc2ccc(C(=O)N(C)C)cc2)nc(-c2cnc(NC(=O)NC3CC3)s2)n1 [Compound 10093] | – | < 1 | > 50 | < 1 |
| CN(C)C(=O)c1ccc(Oc2nc(-c3ccc(N)nc3)nc(N3CC4CCC(C3)O4)n2)c(F)c1 [Compound 10095] | – | < 1 | < 50 | > 1 |
| C[C@H]1COCCN1c1nc(Oc2ccc(C(=O)N(C)C)cc2)nc(-c2ccc(N)nc2)n1 [Compound 10096, (S)-4-((4-(6-Aminopyridin-3-yl)-6-(3-methylmorpholino)-1,3,5-triazin-2-yl)oxy)-N,N-dimethylbenzamide] | > 50 | < 1 | – | < 1 |
| C[C@H]1CN(c2nc(Oc3ccc(C(=O)N(C)C)cc3F)nc(-c3ccc(N)nc3)n2)[C@@H](C)CO1 [Compound 10097, 4-((4-(6-Aminopyridin-3-yl)-6-((2S,5S)-2,5-dimethylmorpholino)-1,3,5-triazin-2-yl)oxy)-3-fluoro-N,N-dimethylbenzamide] | – | < 1 | > 50 | < 1 |
| C[C@@H]1CN(c2nc(Oc3ccc(C(=O)N(C)C)cc3F)nc(-c3ccc(N)nc3)n2)[C@@H](C)CO1 [Compound 10098, 4-((4-(6-Aminopyridin-3-yl)-6-((2R,5S)-2,5-dimethylmorpholino)-1,3,5-triazin-2-yl)oxy)-3-fluoro-N,N-dimethylbenzamide] | – | < 1 | > 50 | < 1 |
| C[C@@H]1COCCN1c1nc(Oc2ccc(C(=O)N(C)C)cc2F)nc(-c2ccc(N)nc2)n1 [Compound 10099, (R)-4-((4-(6-Aminopyridin-3-yl)-6-(3-methylmorpholino)-1,3,5-triazin-2-yl)oxy)-3-fluoro-N,N-dimethylbenzamide] | – | < 1 | > 50 | < 1 |
| C[C@H]1COCCN1c1nc(Oc2ccc(C(=O)N(C)C)cc2F)nc(-c2ccc3[nH]ccc3c2)n1 [Compound 10100, (S)-4-((4-(1H-indol-5-yl)-6-(3-methylmorpholino)1,3,5-triazin-2-yl)oxy)3-fluoro-N,N-dimethylbenzamide] | > 50 | < 1 | – | < 1 |
| C[C@H]1COCCN1c1nc(Oc2ccc(C(=O)N(C)C)cc2F)nc(-c2cnc3[nH]ccc3c2)n1 [Compound 10103, (S)-3-Fluoro-N,N-dimethyl-4-((4-(3-methylmorpholino)-6-(1H-pyrrolo-[2,3-b]pyridin-5-yl)-1,3,5-triazin-2-yl)oxy)benzamide] | – | < 1 | – | < 1 |
| C[C@H]1CN(c2nc(Oc3ccc(C(=O)N(C)C)cc3F)nc(-c3cnc4[nH]ccc4c3)n2)[C@@H](C)CO1 [Compound 10104, 4-((4-((2S,5S)-2,5-dimethylmorpholino)-6-(1H-pyrrolo[2,3-b]pyridine-5-yl)-1,3,5-triazin-2-yl)oxy)-3-fluoro-N,N-dimethylbenzamide] | – | < 1 | – | < 1 |
| C[C@@H]1CN(c2nc(Oc3ccc(C(=O)N(C)C)cc3F)nc(-c3cnc4[nH]ccc4c3)n2)[C@@H](C)CO1 [Compound 10105, 4-((4-((2R,5S)-2,5-dimethylmorpholino)-6-(1H-pyrrolo[2,3-b]pyridine-5-yl)-1,3,5-triazin-2-yl)oxy)-3-fluoro-N,N-dimethylbenzamide] | – | < 1 | – | > 1 |
| CC(C(=O)N(C)C)c1ccc(Oc2nc(-c3cnc(N)s3)nc(N3CCOCC3)n2)cc1 (stereo not drawn) [Compound 10115, 2-(4-(4-(2-aminothiazol-5-yl)-6-morpholino-1,3,5-triazin-2-yloxy)phenyl)-N,N-dimethylpropanamide] | > 50 | – | – | < 1 |
| CN(C)C(=O)c1ccc(Oc2nc(-c3cnc(N)s3)nc(N3CCSCC3)n2)cc1 [Compound 10118, 4-(4-(2-aminothiazol-5-yl)-6-thiomorpholino-1,3,5-triazin-2-yloxy)-N,N-dimethylbenzamide] | > 50 | > 3 | – | > 1 |
| CN(C)C(=O)c1ccc(Oc2nc(-c3cnc(N)s3)nc(N3CCCCC3)n2)cc1 [Compound 10119, 4-(4-(2-aminothiazol-5-yl)-6-(piperidin-1-yl)-1,3,5-triazin-2-yloxy)-N,N-dimethylbenzamide] | < 50 | – | – | > 10 |
| C[C@@H]1CN(c2nc(Oc3ccc(C(=O)N(C)C)cc3)nc(-c3cnc(N)s3)n2)C[C@H](C)O1 [Compound 10122, 4-(4-(2-aminothiazol-5-yl)-6-((2S,6R)-2,6-dimethylmorpholino)-1,3,5-triazin-2-yloxy)-N,N-dimethylbenzamide] | > 50 | > 1 | < 50 | – |
